According to patent US6440999B1, “Intimal thickening inhibitory agent” (Chugai Seiyaku Kabushiki Kaisha, priority 1995, dated 2002):

Legend:
[1] = tested on: A7r5 cells derived from the aorta of a rat; assay: Inhibition of serum-stimulated proliferation of vascular smooth muscle cells, acid phosphatase activity; type: cell-based; settings: 48 hours after 2% FBS stimulation, n = 3, mean ± SD; for Acid Phosphatase Activity Absorbance (OD405): control 0.867 ± 0.089; for activity at 10 µM / activity at 100 µM / activity at 30 µM: Rattus norvegicus, A7R5, control 100 ± 10
Method: In order to assess the inhibitory effect of the compounds of the present invention on serum-stimulated proliferation of vascular smooth muscle cells in vitro, the compounds of Examples 1, 4, 20, 22, 27, 31, 36, 50, 52, and 58 were tested using A7r5 cells derived from the aorta of a rat (ATCC-CRL-1444).
Using DMEM medium containing 10% FBS, the cells were placed on 96-well microtiter plates with 5×10^3 cells/0.2 ml/ well and then incubated. The medium was exchanged for 2% FBS-containing DMEM medium on the third day and then for 0.2% FBS-containing DMEM medium on the fourth day from the start of the incubation. After 24-hour incubation in the 0.2% FBS-containing DMEM medium, the test compound was added. Each of the test compounds were added to the wells in the form of a solution or suspension in ethanol in an amount of 1 μl/well to final compound concentrations indicated in Table 3 below and the resultant ethanol concentration of 0.5% in each well. After additional 24-hour incubation, the medium was removed, and 0.2 ml of DMEM medium and the test compound were added thereto again, and the cells were stimulated by serum (2% FBS). Forty-eight hours after the stimulation, the acid phosphatase activity in the wells was measured by means of a kit (Abacus Cell Proliferation Kit, available from Clontech Lab. Inc. CA, U.S.A.) and evaluated as an indication of cell proliferation.

[2] = tested on: A7r5 cells derived from the aorta of a rat; assay: Inhibition of serum- or PDGF-stimulated proliferation of vascular smooth muscle cells, [3H]-thymidine uptake; type: cell-based; settings: uptake in 5 hours, n = 3, mean ± SD; for Count by Liquid Scintillation Counter, FBS Stimulation ([3H]-thymidine uptake): 2% FBS, control 42789 ± 1063; for Count by Liquid Scintillation Counter, PDGF Stimulation ([3H]-thymidine uptake): PDGF-BB 4 ng/ml, control 24517 ± 2370
Method: In order to assess the inhibitory effect of a compound of the present invention on serum- or PDGF-stimulated proliferation of vascular smooth muscle cells in vitro, the compound obtained in Example 36 was tested using A7r5 cells derived from the aorta of a rat (ATCC-CRL-1444). Further, the effect was compared with that of α-tocopherol which was reported to have an inhibitory effect on proliferation of vascular smooth muscle cells (see J. Biol. Chem., 266, pp. 6188-6194 (1991)).
Using DMEM medium containing 10% FBS, the cells were placed on 96-well microtiter plates with 5×10^3 cells/0.2 ml/well and then incubated. The medium was exchanged for 2% FBS-containing DMEM medium on the third day and then for 0.2% FBS-containing DMEM medium on the fourth day from the start of the incubation. After 48-hour incubation in the 0.2% FBS-containing DMEM medium, the medium was removed, 0.2 ml of DMEM medium and the test compound were added, and the cells were stimulated with serum (2% FBS) or PDGF (PDGF-BB: human origin, available from Becton Dickinson Labware) (4 ng/ml) to proliferate. The test compound was added to the wells in the form of a solution or suspension in ethanol in amount of 1 μl well to final compound concentrations indicated in Table 2 below and the resultant ethanol concentration of 0.5% in each well. Eight hours after the stimulation, hydroxyurea was added to a final concentration of 1.5 mM to synchronize the cell cycle strictly. After additional 14-hour incubation, the medium containing hydroxyurea was removed and the cells were washed, and DMEM medium, the test compound and the proliferation stimulator were added thereto again. Further, [^3H]-thymidine (1 μCi/well; […]; available from NEN Research) was added. The [^3H]-thymidine uptake in 5 hours was measured as an indication of cell proliferation.

[3] = tested on: rabbit balloon injury models; assay: In vivo effect in intimal thickening model (2), rabbit balloon injury; settings: cholesterol-fed rabbits, 15-week-old, 200 mg/kg oral once a day, four weeks after balloon treatment, mean ± SD
Method: In order to assess the inhibitory effect of the compound of the present invention on intimal thickening in vivo, the compound of Example 36 was tested using rabbit balloon injury models that were different from those used in Test Example 4 in week-age. Further, the effect was compared with that of Probucol which was reported to have an inhibitory effect on intimal thickening in balloon injury models (see Proc. Natl. Acad. Sci., U.S.A., 89, pp 11312-11316 (1992)).
Cholesterol-fed rabbits in groups of seven (JW: CSK male, 15-week-old) were used to prepare rabbit balloon injury models. Briefly, rabbits were fed with a high cholesterol diet (cholesterol content: 1%) for 2 weeks before balloon treatment. The animals were balloon-treated with a balloon catheter (4 French, available from Baxter) under anesthesia to peel the aortic intima 5 times. The animals were orally administered with the compound which was suspended in a 1% CMC solution (200 mg/kg). On the other hand, control animals were orally administered with a 1% CMC solution without the compound. The administrations were performed once a day from 1 week before the balloon treatment until the day before the dissection for evaluation. In order to evaluate the degree of balloon injury, a balloon-nontreated group (3 animals) was prepared.
After four weeks from the balloon treatment, specimens were taken from the aorta, stained with Elastica van Geison, and analyzed under an optical microscope. The image was processed to measure the thickness and area of the thickened intima. Averages of the thickness and area were obtained for each individual animal. The animals which died after the operation and those having a serum cholesterol level of 3500 mg/dl or higher were excluded from the measurement. The number of animals used for the evaluation was 4 or 5 per group.

Row | SMILES | Acid Phosphatase Activity Absorbance (OD405) ([1]; 10 μM) | activity at 10 µM ([1]; 10 μM) [%] | Acid Phosphatase Activity Absorbance (OD405) ([1]; 30 μM) | activity at 30 µM ([1]; 30 μM) [%] | also measured
1 | CC(C)(C)c1cc2c(c(C(C)(C)C)c1O)CC1(CCOCC1)O2 [Example 22, 4,6-Di-t-butyl-5-hydroxy-2,3-dihydrobenzofuran-2-spiro-4′-tetrahydropyran] | 0.875 ± 0.013 | 101 ± 1 | – | – | Acid Phosphatase Activity Absorbance (OD405) ([1]; 100 μM): 0.777 ± 0.062; activity at 100 µM ([1]; 100 μM): 90 ± 7%
2 | CC1(C)Cc2c(cc(C(C)(C)C)c(O)c2C(C)(C)C)S1 [Example 52, 4,6-Di-t-butyl-5-hydroxy-2,2-dimethyl-2,3-dihydrobenzothiophene] | 0.690 ± 0.071 | 80 ± 8 | 0.043 ± 0.008 | 5 ± 1 | –
3 | Cc1c(C)c2c(c(C)c1O)CC[C@@](C)(CCC[C@H](C)CCC[C@H](C)CCCC(C)C)O2 [α-Tocopherol, α-tocopherol, reference compound] | – | – | – | – | Count by Liquid Scintillation Counter, FBS Stimulation ([3H]-thymidine uptake) ([2]; 30 μM): 28058 ± 3912 CPM; Count by Liquid Scintillation Counter, PDGF Stimulation ([3H]-thymidine uptake) ([2]; 30 μM): 12493 ± 2978 CPM; Count by Liquid Scintillation Counter, FBS Stimulation ([3H]-thymidine uptake) ([2]; 100 μM): 25706 ± 4160 CPM; Count by Liquid Scintillation Counter, PDGF Stimulation ([3H]-thymidine uptake) ([2]; 100 μM): 12159 ± 2362 CPM
4 | CC(C)(C)c1cc2c(c(C(C)(C)C)c1O)CC1(CCCCC1)S2 [Example 58, 4,6-Di-t-butyl-5-hydroxy-2,3-dihydrobenzothiophene-2-spiro-1′-cyclohexane] | 0.417 ± 0.125 | 48 ± 14 | 0.045 ± 0.006 | 5 ± 1 | –
5 | CC(C)(C)c1cc2occc2c(C(C)(C)C)c1O [Example 27, 4,6-Di-t-butyl-5-hydroxybenzofuran] | 0.553 ± 0.033 | 64 ± 4 | 0.225 ± 0.064 | 26 ± 7 | –
6 | CCCOc1cc(C(C)(C)C)c(O)c(C(C)(C)C)c1C [Example 31, 2,6-Di-t-butyl-3-methyl-4-propyloxyphenol] | 0.756 ± 0.025 | 87 ± 3 | – | – | Acid Phosphatase Activity Absorbance (OD405) ([1]; 100 μM): 0.600 ± 0.102; activity at 100 µM ([1]; 100 μM): 69 ± 12%
7 | CCCCCC1(CCCCC)Cc2c(cc(C(C)(C)C)c(O)c2C(C)(C)C)S1 [Example 50, 4,6-Di-t-butyl-5-hydroxy-2,2-di-n-pentyl-2,3-dihydrobenzothiophene] | 0.699 ± 0.131 | 81 ± 15 | 0.146 ± 0.026 | 17 ± 3 | –
8 | CC1(C)Cc2c(cc(C(C)(C)C)c(O)c2C(C)(C)C)O1 [Example 4, 4,6-Di-t-butyl-5-hydroxy-2,2-dimethyl-2,3-dihydrobenzofuran] | 0.606 ± 0.020 | 70 ± 2 | 0.062 ± 0.026 | 7 ± 3 | –
9 | CC(C)(C)c1cc2c(c(C(C)(C)C)c1O)CCO2 [Example 1, 4,6-Di-t-butyl-5-hydroxy-2,3-dihydrobenzofuran] | 0.727 ± 0.032 | 84 ± 4 | – | – | Acid Phosphatase Activity Absorbance (OD405) ([1]; 100 μM): 0.288 ± 0.073; activity at 100 µM ([1]; 100 μM): 33 ± 8%
10 | CC(C)(C)c1cc2c(c(C(C)(C)C)c1O)CC1(CCCCCC1)O2 [Example 20, 4,6-Di-t-butyl-5-hydroxy-2,3-dihydrobenzofuran-2-spiro-1′-cycloheptane] | 0.472 ± 0.031 | 54 ± 4 | 0.105 ± 0.027 | 12 ± 3 | –
11 | CC(C)(Sc1cc(C(C)(C)C)c(O)c(C(C)(C)C)c1)Sc1cc(C(C)(C)C)c(O)c(C(C)(C)C)c1 [Probucol, reference compound] | – | – | – | – | Area of Intima ([3]; control 1.32 ± 0.22): 0.97 ± 0.28 mm²; Thickness of Intima ([3]; control 119 ± 19): 92 ± 17 μm
12 | CC1(CO)Cc2c(cc(C(C)(C)C)c(O)c2C(C)(C)C)O1 (stereo not shown) [Example 48, 4,6-Di-t-butyl-5-hydroxy-2-hydroxymethyl-2-methyl-2,3-dihydrobenzofuran] | – | – | – | – | melting point: 126 to 128 °C
